Results on two compounds are retold here after paper PMC12677652, “Procyanidin B3 and Its Derivatives Alleviate Neuronal Injury by Targeting G3BP1 for Ischemic Stroke Therapy” (Advanced Science, 2025).

Assay [1] deals with T1, recombinant human G3BP1 protein (Homo sapiens, UniProt Q13283).
T1 construct: purchased Hubei Ipodix Biotechnology Co., Ltd. (China)
The experiment in a line: SPR analysis of binding to G3BP1 (Biacore T200, CM5 chip). The conditions noted are these: 1:1 binding model, running buffer PBS. As to the method:
The SPR analyses were carried out using a Biacore T200 instrument (GE Healthcare, USA) with the Series Sensor Chip CM5 (GE Healthcare, USA). The recombinant human G3BP1 protein was purchased from Hubei Ipodix Biotechnology Co., Ltd. (China). The protein was immobilized on the chip using an amine coupling kit (GE Healthcare, USA). The blank channel served as the negative control. The binding experiments were performed at a flow rate of 30 µL min^−1. For the measurement of the kinetic parameters of PB3 and 6c, gradient dilutions of PB3 and 6c were injected into the immobilized protein. The running buffer was PBS. All biosensor data were processed and analyzed with Biacore T200 Evaluation software version 3.2 (GE Healthcare, USA) and fitted by a 1:1 binding model.
In general terms: In SPR one partner is held on a chip, and binding of the other changes the refractive index at the surface.

Another assay deals with tMCAO mice. Put plainly: tMCAO model in mice (neurological deficit score, infarct volume, apoptosis, SG level). The assay is classed as in vivo. Particulars: for SG levels in the ischemic cortex / ischemic brain tissue: 48 mg kg^−1, i.p. As to the method:
Mice were kept anesthetized during surgery with 1% pentobarbital sodium (50 mg kg^−1, Sigma‐Aldrich, USA) by i.p. injection. Transient ischemia was induced by using the suture occlusion technique according to our previous studies.^[ [10] ^] Expose the common carotid artery area, insert a 6–0 sized silicon rubber‐coated filament into the left internal carotid artery until it reaches the approximate branch of the left middle cerebral artery, and leave it for 1–1.5 h to block blood flow. Then, the suture and the filament were removed, and the wounds were sutured. 24 h after the operation, a series of phenotypic evaluations was conducted on each mouse. The Bederson score was applied according to our previous studies.^[ [10] ^]
Apoptosis level was evaluated by TUNEL staining and flow cytometry. For TUNEL staining, HT22 cells were treated with 4% paraformaldehyde for 15 min. Then the fixed brain tissue slices and HT22 cells were permeabilized for 5 min using 1% Triton X‐100 (Sigma‐Aldrich, USA) dissolved in PBS. TUNEL staining was executed by following the instructions, using a one‐step TUNEL apoptosis assay kit (Meilunbio, China). Red fluorescence was utilized to identify apoptotic cells, while 4′, 6‐diamidino‐2‐phenylindole (DAPI) was used to counterstain the nuclei. The fluorescence microscope (Carl Zeiss, Germany) was used to obtain images. For flow cytometry, apoptotic cells were determined with the Annexin V‐Alexa Fluor 488/PI apoptosis detection kit (Yeasen, China) by following the instructions. EDTA‐free trypsin (Gibco, USA) was added to HT22 cells (2.5 × 10^5 cells). The cells were collected and washed with pre‐cooling PBS 2 times, then suspended in 250 µL 1× binding buffer. 100 µL cell suspension was dyed with 5 µL Annexin V‐Alexa Fluor 488 and 10 µL PI and plunged into darkness at room temperature for 15 min. Then the cell suspension was mixed with 400 µL of 1× binding buffer. Cell apoptosis was immediately determined by Cytek Aurora (Cytek Biosciences, USA).
Cells and tissues were homogenized in RIPA buffer (Beyotime, China) containing protease inhibitors (Biovision, USA) on ice for 30 min. After centrifugation (13000 r min^−1, 4 °C) for 10 min, the resulting supernatant was collected. The protein concentrations were determined by a BCA protein assay kit (Thermo Scientific, USA). After separating a 10% sodium dodecyl sulfate (SDS)‐polyacrylamide gel, protein on the gel was then transferred onto nitrocellulose membranes (Merck, USA), which were blocked with 5% bovine serum albumin for 1 h to prevent non‐specific binding. Then, the anti‐caspase 3 antibody (catalog no. 9662, Cell Signaling Technology, USA), anti‐Bcl‐2 antibody (catalog no. GTX100064, GeneTex, USA), anti‐G3BP1 antibody (catalog no. 66486‐1‐Ig, Proteintech, China), anti‐β‐tubulin antibody (catalog no. 66240‐1‐Ig, Proteintech, China), and anti‐β‐actin antibody (catalog no. 66009‐1‐Ig, Proteintech, China) were used for treating the membrane overnight at 4 °C. Bound antibodies were detected with the species‐appropriate horseradish peroxidase‐labeled secondary antibody (Jackson ImmunoResearch, USA) using ECL reagents (ShareBio, China). Protein‐specific signals were detected using a Bio‐Rad Imager (Bio‐Rad, USA), and the bands were quantified by densitometric analysis software (ImageJ). β‐tubulin or β‐actin was used as a loading control.
Cerebral infarction volume was evaluated by Nissl staining or 2,3,5‐triphenyltetrazolium chloride staining. The infarct volume was computed using image‐processing software (Image J), and the percentage of the infarct volume was calculated according to our previous studies.^[ [10] ^] For Nissl staining, the fixed brain tissue slices were washed twice with ultrapure water for 2 min each time. Next, they were stained with Nissl staining solution (Beyotime, China) at 37 °C for 10 min, washed twice with ultrapure water, washed once with 95% ethanol, and washed twice with 70% ethanol. […]

The test system of a further assay is SG in HT22 cells. The experiment in a line: Immunofluorescence staining of G3BP1 to detect SG level in HT22 cells under OGD/R. The conditions noted are these: for ratio of SG‐positive cells: 100 µM; for SG levels: after 6 h of OGD, 24 h treatment. The format is cell-based. As to the method: Immunofluorescence analysis of the stress granule (SG) core component G3BP1 was utilized to investigate the SG formation in HT22 cells and the cortex. HT22 cells were treated with 4% paraformaldehyde for 15 min. Then the fixed brain tissue slices and HT22 cells were permeabilized for 5 min using 1% Triton X‐100 (Sigma‐Aldrich, USA) dissolved in PBS and blocked with a PBS solution containing 10% goat serum for 1 h, followed by incubation with anti‐G3BP1 antibody (catalog no. 66486‐1‐Ig, Proteintech, China) at 4 °C overnight. After being washed with PBS 3 times for 5 min each, samples were incubated with secondary antibody (Alexa Fluor 568 Goat anti‐mouse IgG, Invitrogen, USA) in the dark for 2 h at room temperature. The nucleus was stained with DAPI. Fluorescent pictures were obtained with a fluorescence microscope (Carl Zeiss, Germany).

Where [2] appears, read: 48 mg kg^−1 i.p., compared to the model group.

T1 sequence (Q13283 whole entry): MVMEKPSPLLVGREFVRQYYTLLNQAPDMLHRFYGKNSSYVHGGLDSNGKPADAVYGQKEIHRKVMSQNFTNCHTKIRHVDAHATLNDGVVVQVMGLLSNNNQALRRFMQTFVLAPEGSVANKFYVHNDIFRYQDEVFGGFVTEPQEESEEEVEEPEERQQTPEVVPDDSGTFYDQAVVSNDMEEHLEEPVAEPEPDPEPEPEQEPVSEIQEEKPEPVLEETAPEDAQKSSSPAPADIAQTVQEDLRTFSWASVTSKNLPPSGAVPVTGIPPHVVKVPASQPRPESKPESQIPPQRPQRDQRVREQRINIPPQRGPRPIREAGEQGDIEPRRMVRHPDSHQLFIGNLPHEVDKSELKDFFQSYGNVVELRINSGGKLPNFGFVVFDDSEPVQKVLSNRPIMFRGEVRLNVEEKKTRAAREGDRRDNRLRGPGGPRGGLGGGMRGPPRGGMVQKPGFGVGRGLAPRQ

One may read the Kd as the concentration at which binding is half-saturated. Turning to `Oc1cc(O)c2c(c1)O[C@H](c1ccc(O)c(O)c1)[C@@H](O)[C@@H]2c1c(O)cc(O)c2c1O[C@H](c1ccc(O)c(O)c1)[C@@H](O)C2` [Compound 1, procyanidin B3], the Kd in assay [1] turned out to be 44 nM. For the same compound, in the assay on tMCAO mice, the “SG levels in the ischemic cortex / ischemic brain tissue” value is “significantly enhanced SG levels”. In addition, in the assay with tMCAO mice (48 mg kg^−1 i.p., 1.5 h MCAO, 24 h after reperfusion), the neurological deficit score result was “improved neurological deficits”. The infarct volume entry in the assay on tMCAO mice (48 mg kg^−1 i.p., 1.5 h MCAO, 24 h reperfusion, Nissl staining) was “significantly reduced”. Also, in the assay with tMCAO mice (setting [2]), the “apoptosis level (TUNEL staining of frozen brain sections)” value is given as “significantly reduced”, the “expression level of Bcl‐2 in the ischemic cortex” value is listed as “increased” and the “expression level of cleaved caspase‐3 in the ischemic cortex” value is reported as “decreased”. For the same compound, in the assay on SG in HT22 cells (1 h after administration), the “ratio of SG‐positive cells” value is reported as “did not change significantly”. The “ratio of SG‐positive cells” value in the assay with SG in HT22 cells (after 24 h of reoxygenation) is recorded as “significantly increased”. Further, the SG levels entry in the assay with SG in HT22 cells is listed as “enhance SG levels in a dose‐dependent manner”.

For `CC(C)c1c(O)cc(O)c2c1O[C@H](c1ccc(O)c(O)c1)[C@@H](O)[C@@H]2c1c(O)cc(O)c2c1O[C@H](c1ccc(O)c(O)c1)[C@@H](O)C2` [Compound 6c, 8‐Isopropyl‐(+)‐Catechin‐(4α,8)‐(+)‐Catechin], the Kd in assay [1] amounted to 58 nM. For the same compound, in the assay with tMCAO mice, the “SG levels in the ischemic cortex / ischemic brain tissue” value was “mediate SG upregulation”. In addition, the “neuroprotective activity compared with the model group” value in the assay on tMCAO mice (48 mg kg^−1, 1.5 h of MCAO and 24 h of reperfusion) is given as “best neuroprotective activity”. In the assay on tMCAO mice (1 h ischemia, i.p. injection after reperfusion, 24 h after reperfusion), the “reduction of infarct volume” value is “≈ 30%”. In addition, the neurological deficit score result with tMCAO mice (1 h ischemia, i.p. injection after reperfusion, 24 h after reperfusion, preliminary screening) is given as “more pronounced trend toward improving neurological deficits”. Besides, the “infarct area and neurological function at different doses” value in the assay on tMCAO mice (1.5 h of MCAO and 24 h of reperfusion) was “therapeutic effect on ischemic injury in a dose‐dependent manner”. Also, the SG levels result with SG in HT22 cells is reported as “mediate SG upregulation”.
